Measured values reported in patent US9278915B2, “Agonists of GPR40” (CONNEXIOS LIFE SCIENCES PVT LTD, priority 2010, dated 2016).

Target: T1, hGPR40 (Homo sapiens, UniProt O14842)
T1 construct: expressed in transfected cells
Assay: Calcium flux assay to detect GPR40 activation
Type: cell-based
Settings: CHO-K cells stably expressing hGPR40; Fluo-4 NW; read for 4 min at 5 s intervals
Protocol: Biological Activity Calium Flux Assay to Detect GPR40 Activation: CHO-K cells stably expressing hGPR40 were selected in a media containing Neomycin/G418. The cells were plated at a concentration of 20,000 cells per well in black 96-well clear bottom tissue culture treated plates. The cells were cultured for 24 h at 37° C. in a humidified 5% CO2 air environment to allow for protein expression. The next day, after removal of media from wells, Fluo-4 NW (Invitrogen) is added at 100 ul/well and the cells were incubated for 30 min at 37° C. and for a further 30 min at RT. All test compounds were diluted to appropriate concentrations in HEPES buffer. Compounds were added to the cells and the wells were read in the BioTEK synergy reader and readings were taken for 4 min with an interval of 5 s.

T1 sequence (O14842 whole entry): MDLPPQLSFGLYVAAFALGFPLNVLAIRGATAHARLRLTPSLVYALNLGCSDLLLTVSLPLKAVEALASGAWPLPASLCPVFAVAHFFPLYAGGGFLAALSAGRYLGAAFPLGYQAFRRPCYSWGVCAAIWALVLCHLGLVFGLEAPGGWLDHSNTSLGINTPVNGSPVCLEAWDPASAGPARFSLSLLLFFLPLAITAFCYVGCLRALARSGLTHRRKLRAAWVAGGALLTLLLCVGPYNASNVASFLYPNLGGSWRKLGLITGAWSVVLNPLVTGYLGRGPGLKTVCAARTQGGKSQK

SMILES | EC50
CO/N=C(\COc1ccc(COc2ccc(C(CC(=O)O)c3ccon3)cc2)cc1)c1ccccc1 (centres unmarked) [Compound 29, Sodium 3-{4-[(4-{[(2Z)-2-(methoxyimino)-2-phenylethyl]oxy}benzyl)oxy]phenyl}-3-(1,2-oxazol-3-yl)propanoate] | < 10 nM
CO/N=C(\COc1ccc(COc2ccc(C(C)(C#N)CC(=O)O)cc2)cc1)c1ccccc1 (centres unmarked) [Compound 59, 3-Cyano-3-{4-[(4-{[(2Z)-2-(methoxyimino)-2-phenylethyl]oxy}benzyl)oxy]phenyl}butanoic acid] | > 100 nM
CO/N=C(\COc1ccc(-c2ccc(CCC(=O)O)cc2)cc1)c1ccccc1 [Compound 115, 3-(4′-{[(2Z)-2-(Methoxyimino)-2-phenylethyl]oxy}biphenyl-4-yl)propanoic acid] | > 100 nM
CO/N=C(/c1ccccc1)c1ccc(CNc2ccc(CCC(=O)O)cc2)cc1 [Compound 3, 3-[4-({4-[(E,Z)-(Methoxyimino)(phenyl)methyl]benzyl}amino)phenyl]propanoic acid] | > 100 nM
CO/N=C(\COc1ccc(COc2ccc(/C(CC(=O)O)=N\OC)cc2)cc1)c1ccccc1 [Compound 68, (3E,3Z)-3-(Methoxyimino)-3-{4-[(4-{[(2Z)-2-(methoxyimino)-2-phenylethyl]oxy}benzyl)oxy]phenyl}propanoic acid] | > 100 nM
CO/N=C(\COc1ccc(COc2ccc(CCC(=O)O)cc2)cc1)c1sc2c(c1C)C(C)(C)CCC2(C)C [Compound 106, 3-{4-[(4-{[(2E)-2-(Methoxyimino)-2-(3,4,4,7,7-pentamethyl-4,5,6,7-tetrahydro-1-benzothiophen-2-yl)ethyl]oxy}benzyl)oxy]phenyl}propanoic acid] | > 100 nM
CO/N=C(\COc1cccc(CNc2ccc(CCC(=O)O)cc2)c1)c1ccccc1 [Compound 5] | > 100 nM
CO/N=C(\COc1ccc(COc2ccc(C3CC3C(=O)O)cc2)cc1)c1ccc(OC)cc1 (centres unmarked) [Compound 46, 2-{4-[(4-{[(2Z)-2-(Methoxyimino)-2-(4-methoxyphenyl)ethyl]oxy}benzyl)oxy]phenyl}cyclopropanecarboxylic acid] | 10 to 100 nM
CO/N=C(\COc1ccc(COc2ccc(CCC(=O)O)c(F)c2)cc1OC)c1ccccc1 [Compound 41, 3-{2-Fluoro-4-[(3-methoxy-4-{[(2E,2Z)-2-(methoxyimino)-2-phenylethyl]oxy}benzyl)oxy]phenyl}propanoic acid] | 10 to 100 nM
CO/N=C(\COc1ccc(COc2ccc(CCC(=O)O)c(C#N)c2)cc1)c1ccccc1 [Compound 42, 3-{2-Cyano-4-[(4-{[(2E,2Z)-2-(methoxyimino)-2-phenylethyl]oxy}benzyl)oxy]phenyl}propanoic acid] | > 100 nM
CO/N=C(\COc1ccc(CNc2ccc(-c3onc(C)c3CCC(=O)O)cc2)cc1)c1ccc(C#N)cc1 [Compound 72, 3-(5-{4-[(4-{[(2E,2Z)-2-(4-Cyanophenyl)-2-(methoxyimino)ethyl]oxy}benzyl)amino]phenyl}-3-methyl-1,2-oxazol-4-yl)propanoic acid] | > 100 nM
CO/N=C(/c1ccccc1)c1cccc(COc2ccc(C(C#N)CC(=O)O)cc2)c1 (centres unmarked) [Compound 12, 3-Cyano-3-[4-({3-[(E,Z)-(methoxyimino)(phenyl)methyl]benzyl}oxy)phenyl]propanoic acid] | > 100 nM
CO/N=C(\COc1ccc(COc2ccc(CCC(=O)O)cc2)cc1)c1ccccc1 [Compound 7, 3-{4-[(4-{[(2Z)-2-(Methoxyimino)-2-phenylethyl]oxy}benzyl)oxy]phenyl}propanoic acid] | < 10 nM
CO/N=C(\COc1ccc(CNc2ccc([C@@H]3C[C@H]3C(=O)O)cc2)cc1)c1ccccc1C [Compound 15, (1R,2R)-2-{4-[(4-{[(2Z)-2-(Methoxyimino)-2-(2-methylphenyl)ethyl]oxy}benzyl)amino]phenyl}cyclopropanecarboxylic acid] | 10 to 100 nM
CO/N=C(/c1ccccc1)c1cccc(COc2ccc(CCC(=O)O)cc2)c1 [Compound 1, 3-[4-({3-[(E,Z)-(methoxyimino)(phenyl)methyl]benzyl}oxy)phenyl]propanoic acid] | 10 to 100 nM
CO/N=C(\COc1ccc(COc2ccc(/C(C#N)=C/C(=O)O)cc2)cc1)c1ccccc1 [Compound 76, (2Z)-3-Cyano-3-{4-[(4-{[(2Z)-2-(methoxyimino)-2-phenylethyl]oxy}benzyl)oxy]phenyl}prop-2-enoic acid] | 10 to 100 nM
CO/N=C(\COc1ccc(COc2ccc(CCC(=O)O)c(OCC#N)c2)cc1)c1ccccc1 [Compound 88, 3-{2-(Cyanomethoxy)-4-[(4-{[(2Z)-2-(methoxyimino)-2-phenylethyl]oxy}benzyl)oxy]phenyl}propanoic acid] | > 100 nM

The next lines start with the values.

EC50 | SMILES
< 10 nM | CO/N=C(\COc1ccc(COc2ccc(C(C#N)CC(=O)O)cc2)cc1)c1ccc(F)cc1 (centres unmarked) [Compound 34, 3-Cyano-3-{4-[(4-{[(2Z)-2-(4-fluorophenyl)-2-(methoxyimino)ethyl]oxy}benzyl)oxy]phenyl}propanoic acid]
< 10 nM | CO/N=C(/COc1ccc(COc2ccc(C(C#N)CC(=O)O)cc2)cc1)c1ccc(C#N)cc1 (racemic) [Compound 33, 3-Cyano-3-{4-[(4-{[(2E,2Z)-2-(4-cyanophenyl)-2-(methoxyimino)ethyl]oxy}benzyl)oxy]phenyl}propanoic acid]
10 to 100 nM | CO/N=C(\COc1ccc(COc2ccc(C(C#N)CC(=O)O)c(C)c2)cc1)c1ccccc1 (centres unmarked) [Compound 62, 3-Cyano-3-{4-[(4-{[(2Z)-2-(methoxyimino)-2-phenylethyl]oxy}benzyl)oxy]-2-methylphenyl}propanoic acid]
10 to 100 nM | CO/N=C(\COc1ccc(COc2ccc(C(C#N)CC(=O)O)c(OC)c2)cc1)c1ccccc1 (centres unmarked) [Compound 83, 3-Cyano-3-{2-methoxy-4-[(4-{[(2Z)-2-(methoxyimino)-2-phenylethyl]oxy}benzyl)oxy]phenyl}propanoic acid]
10 to 100 nM | CO/N=C(\COc1ccc(COc2ccc(C3CC3C(=O)O)cc2)cc1)c1ccc(C#N)cc1 (centres unmarked) [Compound 45, 2-{4-[(4-{[(2Z)-2-(4-Cyanophenyl)-2-(methoxyimino)ethyl]oxy}benzyl)oxy]phenyl}cyclopropanecarboxylic acid]
> 100 nM | CO/N=C(\COc1ccc(COc2ccc(C(O)CC(=O)O)cc2)cc1)c1ccccc1 (centres unmarked) [Compound 119, 3-Hydroxy-3-{4-[(4-{[(2Z)-2-(methoxyimino)-2-phenylethyl]oxy}benzyl)oxy]phenyl}propanoic acid]
10 to 100 nM | CO/N=C(\COc1ccc(COc2ccc(C(C#N)CC(=O)O)cc2)cc1)c1cccc(F)c1 (centres unmarked) [Compound 35, 3-Cyano-3-{4-[(4-{[(2Z)-2-(3-fluorophenyl)-2-(methoxyimino)ethyl]oxy}benzyl)oxy]phenyl}propanoic acid]
10 to 100 nM | N#CC(CC(=O)O)c1ccc(OCc2ccc(OC/C(=N\O)c3ccccc3)cc2)cc1 (centres unmarked) [Compound 78, 3-Cyano-3-{4-[(4-{[(2E,2Z)-2-(hydroxyimino)-2-phenylethyl]oxy}benzyl)oxy]phenyl}propanoic acid]
10 to 100 nM | N#CC(CC(=O)O)c1ccc(OCc2ccc(OC/C(=N\Oc3ccccc3)c3ccccc3)cc2)cc1 (centres unmarked) [Compound 107, 3-Cyano-3-{4-[(4-{[(2E,2Z)-2-(phenoxyimino)-2-phenylethyl]oxy}benzyl)oxy]phenyl}propanoic acid]
